The source made the active and inactive calls. The rule behind the calls is not given here.
Tested on: CCRIS mutagenicity, Ames/micronucleus/aberration tests
Assay: CCRIS mutagenicity studies
[1] = Test System: AMES SALMONELLA TYPHIMURIUM, Strain/Indicator: TA98, Metabolic Activation: NONE, Method: PREINCUBATION
[2] = Test System: AMES SALMONELLA TYPHIMURIUM, Strain/Indicator: TA98, Metabolic Activation: NONE, Method: STANDARD PLATE
[3] = Test System: AMES SALMONELLA TYPHIMURIUM, Strain/Indicator: TA98, Metabolic Activation: RAT, LIVER, S-9, AROCLOR 1254, Method: STANDARD PLATE
[4] = Test System: AMES SALMONELLA TYPHIMURIUM, Strain/Indicator: TA100, Metabolic Activation: NONE, Method: PREINCUBATION
[5] = Test System: AMES SALMONELLA TYPHIMURIUM, Strain/Indicator: TA100, Metabolic Activation: NONE, Method: STANDARD PLATE
[6] = Test System: AMES SALMONELLA TYPHIMURIUM, Strain/Indicator: TA100, Metabolic Activation: RAT, LIVER, S-9, AROCLOR 1254, Method: STANDARD PLATE
[7] = Test System: AMES SALMONELLA TYPHIMURIUM, Strain/Indicator: TA1535, Metabolic Activation: NONE, Method: PREINCUBATION
[8] = Test System: AMES SALMONELLA TYPHIMURIUM, Strain/Indicator: TA1535, Metabolic Activation: NONE, Method: STANDARD PLATE
[9] = Test System: AMES SALMONELLA TYPHIMURIUM, Strain/Indicator: TA1535, Metabolic Activation: RAT, LIVER, S-9, AROCLOR 1254, Method: STANDARD PLATE
[10] = Test System: AMES SALMONELLA TYPHIMURIUM, Strain/Indicator: TA1537, Metabolic Activation: NONE, Method: STANDARD PLATE
[11] = Test System: AMES SALMONELLA TYPHIMURIUM, Strain/Indicator: TA1537, Metabolic Activation: RAT, LIVER, S-9, AROCLOR 1254, Method: STANDARD PLATE
[12] = Test System: MOUSE LYMPHOMA, Strain/Indicator: L5178Y (TK+/TK-), Metabolic Activation: NONE, Method: SUSPENSION/PLATE
[13] = Test System: MOUSE LYMPHOMA, Strain/Indicator: L5178Y (TK+/TK-), Metabolic Activation: RAT, LIVER, S-9, AROCLOR 1254, Method: SUSPENSION/PLATE

For `Oc1c(Br)cc(Br)cc1Br`, the mutagenic call (Test System: AMES SALMONELLA TYPHIMURIUM, Strain/Indicator: TA98, Metabolic Activation: HAMSTER, LIVER, S-9, AROCLOR 1254 (10%), Method: PREINCUBATION) was “inactive; negative”, the mutagenic call (Test System: AMES SALMONELLA TYPHIMURIUM, Strain/Indicator: TA98, Metabolic Activation: HAMSTER, LIVER, S-9, AROCLOR 1254, Method: STANDARD PLATE) was “inactive; negative” and the mutagenic call [1] was “inactive; negative”. The mutagenic call [2] was “inactive; negative”, the mutagenic call (Test System: AMES SALMONELLA TYPHIMURIUM, Strain/Indicator: TA98, Metabolic Activation: RAT, LIVER, S-9, AROCLOR 1254 (10%), Method: PREINCUBATION) was “inactive; negative” and the mutagenic call [3] was “inactive; negative”. The mutagenic call (Test System: AMES SALMONELLA TYPHIMURIUM, Strain/Indicator: TA100, Metabolic Activation: HAMSTER, LIVER, S-9, AROCLOR 1254 (10%), Method: PREINCUBATION) was “inactive; negative”, the mutagenic call (Test System: AMES SALMONELLA TYPHIMURIUM, Strain/Indicator: TA100, Metabolic Activation: HAMSTER, LIVER, S-9, AROCLOR 1254, Method: STANDARD PLATE) was “inactive; negative” and the mutagenic call [4] was “inactive; negative”. The mutagenic call [5] was “inactive; negative”, the mutagenic call (Test System: AMES SALMONELLA TYPHIMURIUM, Strain/Indicator: TA100, Metabolic Activation: RAT, LIVER, S-9, AROCLOR 1254 (10%), Method: PREINCUBATION) was “inactive; negative” and the mutagenic call [6] was “inactive; negative”. For the same molecule, the mutagenic call (Test System: AMES SALMONELLA TYPHIMURIUM, Strain/Indicator: TA1535, Metabolic Activation: HAMSTER, LIVER, S-9, AROCLOR 1254 (10%), Method: PREINCUBATION) was “inactive; negative”, the mutagenic call (Test System: AMES SALMONELLA TYPHIMURIUM, Strain/Indicator: TA1535, Metabolic Activation: HAMSTER, LIVER, S-9, AROCLOR 1254, Method: STANDARD PLATE) was “inactive; negative” and the mutagenic call [7] was “inactive; negative”. For the same molecule, the mutagenic call [8] was “inactive; negative”, the mutagenic call (Test System: AMES SALMONELLA TYPHIMURIUM, Strain/Indicator: TA1535, Metabolic Activation: RAT, LIVER, S-9, AROCLOR 1254 (10%), Method: PREINCUBATION) was “inactive; negative” and the mutagenic call [9] was “inactive; negative”. For the same molecule, the mutagenic call (Test System: AMES SALMONELLA TYPHIMURIUM, Strain/Indicator: TA1537, Metabolic Activation: HAMSTER, LIVER, S-9, AROCLOR 1254 (10%), Method: PREINCUBATION) was “inactive; negative”, the mutagenic call (Test System: AMES SALMONELLA TYPHIMURIUM, Strain/Indicator: TA1537, Metabolic Activation: HAMSTER, LIVER, S-9, AROCLOR 1254, Method: STANDARD PLATE) was “inactive; negative” and the mutagenic call (Test System: AMES SALMONELLA TYPHIMURIUM, Strain/Indicator: TA1537, Metabolic Activation: NONE, Method: PREINCUBATION) was “inactive; negative”. The mutagenic call [10] was “inactive; negative”, the mutagenic call (Test System: AMES SALMONELLA TYPHIMURIUM, Strain/Indicator: TA1537, Metabolic Activation: RAT, LIVER, S-9, AROCLOR 1254 (10%), Method: PREINCUBATION) was “inactive; negative” and the mutagenic call [11] was “inactive; negative”. For the same molecule, the mutagenic call (Test System: AMES SALMONELLA TYPHIMURIUM, Strain/Indicator: TA1538, Metabolic Activation: HAMSTER, LIVER, S-9, AROCLOR 1254, Method: STANDARD PLATE) was “inactive; negative”, the mutagenic call (Test System: AMES SALMONELLA TYPHIMURIUM, Strain/Indicator: TA1538, Metabolic Activation: NONE, Method: STANDARD PLATE) was “inactive; negative” and the mutagenic call (Test System: AMES SALMONELLA TYPHIMURIUM, Strain/Indicator: TA1538, Metabolic Activation: RAT, LIVER, S-9, AROCLOR 1254, Method: STANDARD PLATE) was “inactive; negative”. For the same molecule, the mutagenic call [12] was “active; positive. reevaluation of results: positive”, the mutagenic call [13] was “inactive; negative. reevaluation of results: negative” and the mutagenic call (Test System: Mouse lymphoma, Strain/Indicator: L5178Y (tk+/tk-), Metabolic Activation: None, Method: Suspension/plate) was “active; positive”. For the same molecule, the mutagenic call (Test System: Mouse lymphoma, Strain/Indicator: L5178Y (tk+/tk-), Metabolic Activation: Rat, Liver, S-9, Aroclor 1254, Method: Suspension/plate) was “inactive; negative”.

In the case of `CN(C)CCCNc1c2ccccc2nc2c(N(C)C)ccc([N+](=O)[O-])c12`, the mutagenic call [2] is reported as “active; positive” and the mutagenic call [5] is reported as “active; positive”.

`O=S(=O)(O)c1cc(S(=O)(=O)O)c2c(N=Nc3ccccc3)c(O)ccc2c1` was tested, and the mutagenic call (End Point: IN VITRO CHROMOSOMAL ABERRATIONS, Test System: CHO CELLS, Metabolic Activation: NONE) was “inactive; negative”, the mutagenic call (End Point: IN VITRO CHROMOSOMAL ABERRATIONS, Test System: CHO CELLS, Metabolic Activation: RAT, LIVER, S-9, AROCLOR 1254) was “active; positive” and the mutagenic call (Test System: AMES SALMONELLA TYPHIMURIUM, Strain/Indicator: TA97, Metabolic Activation: HAMSTER, LIVER, S-9, AROCLOR 1254 (10 OR 30%), Method: PREINCUBATION) was “inactive; negative”. The mutagenic call (Test System: AMES SALMONELLA TYPHIMURIUM, Strain/Indicator: TA97, Metabolic Activation: NONE, Method: PREINCUBATION) was “inactive; negative”, the mutagenic call (Test System: AMES SALMONELLA TYPHIMURIUM, Strain/Indicator: TA97, Metabolic Activation: RAT, LIVER, S-9, AROCLOR 1254 (10 OR 30%), Method: PREINCUBATION) was “inactive; negative” and the mutagenic call (Test System: AMES SALMONELLA TYPHIMURIUM, Strain/Indicator: TA98, Metabolic Activation: HAMSTER, LIVER, S-9, AROCLOR 1254 (10 OR 30%), Method: PREINCUBATION) was “inactive; negative”. The mutagenic call [1] was “inactive; negative”, the mutagenic call (Test System: AMES SALMONELLA TYPHIMURIUM, Strain/Indicator: TA98, Metabolic Activation: RAT, LIVER, S-9, AROCLOR 1254 (10 OR 30%), Method: PREINCUBATION) was “inactive; negative” and the mutagenic call (Test System: AMES SALMONELLA TYPHIMURIUM, Strain/Indicator: TA100, Metabolic Activation: HAMSTER, LIVER, S-9, AROCLOR 1254 (10 OR 30%), Method: PREINCUBATION) was “inactive; negative”. The mutagenic call [4] was “inactive; negative”, the mutagenic call (Test System: AMES SALMONELLA TYPHIMURIUM, Strain/Indicator: TA100, Metabolic Activation: RAT, LIVER, S-9, AROCLOR 1254 (10 OR 30%), Method: PREINCUBATION) was “inactive; negative” and the mutagenic call (Test System: AMES SALMONELLA TYPHIMURIUM, Strain/Indicator: TA1535, Metabolic Activation: HAMSTER, LIVER, S-9, AROCLOR 1254 (10 OR 30%), Method: PREINCUBATION) was “inactive; negative”. For the same molecule, the mutagenic call [7] was “inactive; negative”, the mutagenic call (Test System: AMES SALMONELLA TYPHIMURIUM, Strain/Indicator: TA1535, Metabolic Activation: RAT, LIVER, S-9, AROCLOR 1254 (10 OR 30%), Method: PREINCUBATION) was “inactive; negative” and the mutagenic call [12] was “inactive; negative. reevaluation of results: negative”. For the same molecule, the mutagenic call [13] was “active; positive. reevaluation of results: equivocal”.

`Cc1cc2nc3ccc(C)c(N)c3nc2cc1N` was tested, and the mutagenic call [1] was “inactive; negative” and the mutagenic call (Test System: AMES SALMONELLA TYPHIMURIUM, Strain/Indicator: TA98, Metabolic Activation: RAT, LIVER, S-9, PCB, Method: PREINCUBATION) was “active; positive”.

With `O=[N+]([O-])c1ccccc1OS(=O)(=O)c1cccc2cccnc12` the mutagenic call [2] was “inactive; negative”, the mutagenic call [3] was “active; positive” and the mutagenic call [5] was “inactive; negative”. The mutagenic call [6] was “active; positive”, the mutagenic call [8] was “inactive; negative” and the mutagenic call [9] was “inactive; negative”. The mutagenic call [10] was “inactive; negative” and the mutagenic call [11] was “inactive; negative”.
